From ChEMBL document CHEMBL4480419, “Design and molecular modeling of novel P38α MAPK inhibitors targeting breast cancer, synthesized from oxygen heterocyclic natural compounds” (Bioorg Med Chem, 2019)
Calls of active or inactive are those of the source. No cut-off for these calls is given here.

Key:
MDA-MB-231 = assay: Antiproliferative activity against human MDA231 cells after 72 hrs by MTT assay; assay type: functional, cell-based; conditions: MDA-MB-231, 72 h
MCF7 [1] = assay: Antiproliferative activity against human MCF7 cells after 72 hrs by MTT assay; assay type: functional, cell-based; conditions: MCF7, 72 h
MCF7 [2] = assay: Induction of apoptosis in human MCF7 cells assessed as increase in caspase-7 mRNA expression after 48 hrs by RT-PCR analysis; assay type: functional, cell-based
MCF7 [3] = assay: Cell cycle arrest in human MCF7 cells assessed as accumulation of cells at S phase after 48 hrs by propidium iodide staining-based flow cytometric analysis (reference value: 39.38%); assay type: functional
MCF7 [4] = assay: Induction of apoptosis in human MCF7 cells assessed as late apoptotic cells after 48 hrs by Annexin V-FITC/propidium iodide staining-based flow cytometric analysis (reference value: 0.52%); assay type: functional
MAP kinase p38 = MAP kinase p38 (Homo sapiens, UniProt O15264+Q15759+Q16539+P53778); assay: Inhibition of p38alpha MAPK (unknown origin) using ATF-2 as substrate after 1 hr by ELISA; assay type: protein assay
MCF7 [5] = assay: Cell cycle arrest in human MCF7 cells assessed as accumulation of cells at G1 phase after 48 hrs by propidium iodide staining-based flow cytometric analysis (reference value: 53.94%); assay type: functional
MCF7 [6] = assay: Cell cycle arrest in human MCF7 cells assessed as accumulation of cells at preG phase after 48 hrs by propidium iodide staining-based flow cytometric analysis (reference value: 1.71%); assay type: functional
MCF7 [7] = assay: Induction of apoptosis in human MCF7 cells assessed as necrotic cells after 48 hrs by Annexin V-FITC/propidium iodide staining-based flow cytometric analysis (reference value: 0.34%); assay type: functional
MCF7 [8] = assay: Induction of apoptosis in human MCF7 cells assessed as early apoptotic cells after 48 hrs by Annexin V-FITC/propidium iodide staining-based flow cytometric analysis (reference value: 0.85%); assay type: functional
MCF7 [9] = assay: Cell cycle arrest in human MCF7 cells assessed as accumulation of cells at G2/M phase after 48 hrs by propidium iodide staining-based flow cytometric analysis (reference value: 6.68%); assay type: functional
MCF7 [10] = assay: Induction of apoptosis in human MCF7 cells assessed as increase in caspase-7 activity by ELISA; assay type: functional, cell-based

Row | SMILES | IC50 (MDA-MB-231) [µM] | IC50 (MCF7 [1]) [µM] | further results
1 | COc1c(C(=O)/C=C/c2ccc(C)o2)c(O)c(CN2CCN(C)CC2)c2occc12 | > 100 | 4.86 | 
2 | Cc1cc(=O)c2c(OCc3nnc(SCCN4CCOCC4)o3)c3ccoc3cc2o1 | 8.74 | 3.82 | 
3 | COc1c(-c2cc(-c3ccc(C)o3)[nH]c(=S)n2)c(O)c(CN2CCCCC2)c2occc12 | > 100 | > 100 | 
4 | Cc1cc(=O)c2c(OCc3nnc(S)s3)c3ccoc3cc2o1 | 7.07 | 1.65 | 
5 | Cc1cc(=O)c2c(OCc3nnc(SCCN4CCOCC4)s3)c3ccoc3cc2o1 | > 100 | 2.78 | 
6 | COc1c(C(=O)/C=C/c2ccc(C)o2)c(O)c(CN2CCOCC2)c2occc12 | > 100 | > 100 | 
7 | COc1c(-c2cc(-c3ccc(C)o3)[nH]c(=S)n2)c(O)c(CN2CCN(C)CC2)c2occc12 | > 100 | 5.81 | 
8 | COc1c(-c2cc(-c3ccc(C)o3)c(C#N)c(N)n2)c(O)c(Br)c2occc12 | 2.65 | 1.19 | Activity (MCF7 [2]): Active; Activity (MCF7 [3]): 34.81%; Activity (MCF7 [4]): 9.2%; IC50 (MAP kinase p38): 0.04 µM; Activity (MCF7 [5]): 41.56%; Activity (MCF7 [6]): 16.69%; Activity (MCF7 [7]): 2.13%; Activity (MCF7 [8]): 5.36%; Activity (MCF7 [9]): 23.63%; Activity (MCF7 [10]): Active
9 | COc1c(C(=O)/C=C/c2ccc(C)o2)c(O)c(CN2CCCCC2)c2occc12 | > 100 | > 100 | 
10 | COc1c(C(=O)/C=C/c2ccc(C)o2)c(O)c(Br)c2occc12 | 2.1 | 1.36 | IC50 (MAP kinase p38): 0.041 µM
11 | Cc1cc(=O)c2c(OCC(=O)NNC(=S)Nc3ccccc3)c3ccoc3cc2o1 | > 100 | 2.44 | 
12 | CS(=O)(=O)CCNCc1ccc(-c2ccc3ncnc(Nc4ccc(OCc5cccc(F)c5)c(Cl)c4)c3c2)o1 [LAPATINIB] | 4.69 | 4.69 | 
13 | COc1c(-c2cc(-c3ccc(C)o3)[nH]c(=O)n2)c(O)c(Br)c2occc12 | 1.23 | 1.94 | 
14 | Cc1cc(=O)c2c(OCc3nnc(S)o3)c3ccoc3cc2o1 | 12.4 | 13.2 | 
15 | COc1c(-c2cc(-c3ccc(C)o3)[nH]c(=S)n2)c(O)c(CN2CCOCC2)c2occc12 | > 100 | 7.14 | 
16 | COc1c(-c2cc(-c3ccc(C)o3)[nH]c(=S)n2)c(O)c(Br)c2occc12 | 2 | 1.51 | 
17 | Cc1cc(C)n(C(=O)COc2c3ccoc3cc3oc(C)cc(=O)c23)n1 | > 100 | 2.5 | 
